Converted amounts (≈) assume the structure as drawn. One block for each compound: values may come before it. The source made the active and inactive calls. The calls are words filed in the database; no cut-off is given here.
Tests used:
Cryptococcus neoformans [1] = assay: microbe, parasite or virus in culture; type: functional, organism-based; conditions: H99, 72 h
Description: Anti-cryptococcal activity against Cryptococcus neoformans H99 assessed as inhibition of fungal growth incubated for 72 hrs by microdilution method

Cryptococcus neoformans [2] = assay: Inhibition of Cryptococcus neoformans H99 delta5,6-desaturase assessed as upregulation of ERG2 gene expression at 2 ug/ml incubated for 24 hrs by RT-PCR analysis; conditions: dose 2.0 µg/ml
Cryptococcus neoformans [3] = assay: Anti-cryptococcal activity against Cryptococcus neoformans H99 assessed as inhibition of fungal growth at 8 ug/ml measured after 72 hrs by time-growth curve assay; type: functional; set-up: scale not given: the % may be the effect or the level left; conditions: dose 8 µg/ml
Pichia kudriavzevii = assay: microbe, parasite or virus in culture; type: functional, organism-based; conditions: Pichia kudriavzevii, 10153, 48 h
Description: Antifungal activity against Candida krusei 10153 assessed as inhibition of fungal growth incubated for 48 hrs by microdilution method

[Candida] auris [4] = microbe, parasite or virus in culture; type: functional, organism-based; conditions: Candidozyma auris, 0030, 48 h
Description: Antifungal activity against Candida auris 0030 assessed as inhibition of fungal growth incubated for 48 hrs by microdilution method

Candida albicans [5] = assay: Antifungal activity against Candida albicans SC3514 assessed as low level of ergosta-7,22-dien-3-ol at 2 ug/ml incubated for 24 hrs in presence of NADPH by GC-MS analysis; type: functional, organism-based; conditions: dose 2.0 µg/ml
Candida albicans [6] = assay: microbe, parasite or virus in culture; type: functional, organism-based; conditions: SC5314, 48 h
Description: Antifungal activity against Candida albicans SC5314 assessed as inhibition of fungal growth incubated for 48 hrs by microdilution method

Aspergillus fumigatus [7] = assay: microbe, parasite or virus in culture; type: functional, organism-based; conditions: 023-2, 48 h
Description: Antifungal activity against Aspergillus fumigatus 023-2 assessed as inhibition of fungal growth incubated for 48 hrs by microdilution method

Cryptococcus neoformans [8] = assay: Inhibition of Cryptococcus neoformans H99 delta5,6-desaturase assessed as upregulation of ERG3 gene expression at 2 ug/ml incubated for 24 hrs by RT-PCR analysis; conditions: dose 2.0 µg/ml
Cryptococcus neoformans [9] = assay: Fungicidal activity against Cryptococcus neoformans H99 assessed as fungal growth inhibition incubated upto 72 hrs by time-fungicidal curve assay; type: functional
Cryptococcus neoformans [10] = assay: Inhibition of Cryptococcus neoformans H99 delta5,6-desaturase assessed as upregulation of ERG4 gene expression at 2 ug/ml incubated for 24 hrs by RT-PCR analysis; conditions: dose 2.0 µg/ml
Aspergillus fumigatus [11] = assay: microbe, parasite or virus in culture; type: functional, organism-based; conditions: Aspergillus fumigatus, 7544, 48 h
Description: Antifungal activity against Aspergillus fumigatus 7544 assessed as inhibition of fungal growth incubated for 48 hrs by microdilution method

[12] = […] in ICR mouse model of Cryptococcal meningitis infected with Cryptococcus neoformans H99 assessed as median survival time at 15 mg/kg, IG administered daily (reference value: 11 day); type: organism-based; conditions: in vivo, po, 264 h
[Candida] auris [13] = Antifungal activity against Candida auris 15448 assessed as inhibition of fungal growth incubated for 48 hrs by microdilution method; type: functional, organism-based; conditions: Candidozyma auris, 15448, 48 h
Cryptococcus neoformans [14] = assay: Inhibition of Cryptococcus neoformans H99 delta5,6-desaturase assessed as upregulation of ERG11 gene expression at 2 ug/ml incubated for 24 hrs by RT-PCR analysis; conditions: dose 2.0 µg/ml
Candida albicans [15] = assay: microbe, parasite or virus in culture; type: functional, organism-based; conditions: Candida albicans, 904, 48 h
Description: Antifungal activity against Candida albicans 904 assessed as inhibition of fungal growth incubated for 48 hrs by microdilution method

Cryptococcus neoformans [16] = assay: Anti-cryptococcal activity against Cryptococcus neoformans H99 assessed as cell membrane damage at 4 ug/ml incubated for 8 hrs by transmission electron microscopy; type: functional, organism-based; conditions: dose 4.0 µg/ml
Cryptococcus neoformans [17] = assay: Inhibition of biofilm formation in Cryptococcus neoformans H99 at 0.5 to 8 ug/ml incubated for 24 hrs by XTT reduction assay; type: functional, organism-based; conditions: dose 0.5-8 µg/ml, DDE = dose-dependent effect
Cryptococcus neoformans [18] = assay: Anti-cryptococcal activity against Cryptococcus neoformans H99 assessed as efflux of cell contents at 4 ug/ml incubated for 8 hrs by transmission electron microscopy; type: functional, organism-based; conditions: dose 4.0 µg/ml
Cryptococcus neoformans [19] = assay: Anti-cryptococcal activity against Cryptococcus neoformans H99 assessed as cell membrane damage at 0.5 to 4 ug/ml incubated for 8 hrs by transmission electron microscopy; type: functional, organism-based; conditions: dose 0.5-4 µg/ml, DDE = dose-dependent effect
Candida albicans [20] = assay: Upregulation of ERG3 in Candida albicans SC3514 at 0.5 ug/ml incubated for 24 hrs by RT-PCR analysis; type: functional; conditions: dose 0.5 µg/ml
[21] = Metabolic stability in mouse liver microsomes assessed as clearance; type: ADME, Microsome
Candida albicans [22] = assay: Upregulation of ERG11 in Candida albicans SC3514 at 0.5 ug/ml incubated for 24 hrs by RT-PCR analysis; type: functional; conditions: dose 0.5 µg/ml
Nakaseomyces glabratus [23] = assay: microbe, parasite or virus in culture; type: functional, organism-based; conditions: Nakaseomyces glabratus, 9025, 48 h
Description: Antifungal activity against Candida glabrata 9025 assessed as inhibition of fungal growth incubated for 48 hrs by microdilution method

Cryptococcus neoformans [24] = assay: Inhibition of Cryptococcus neoformans H99 delta5,6-desaturase assessed as blockade of ergosterol biosynthesis at 0.5 ug/ml pretreated with ERG enzymes followed by compound addition incubated for 24 hrs in presence of NADPH by GC-MS analysis; conditions: dose 0.5 µg/ml
Cryptococcus neoformans [25] = assay: Inhibition of Cryptococcus neoformans H99 delta5,6-desaturase assessed as upregulation of ERG11 at 0.25 to 1 ug/ml incubated for 24 hrs by RT-PCR analysis; conditions: dose 0.25-1 µg/ml, DDE = dose-dependent effect
[26] = Cytotoxicity against HUVEC cells; conditions: human
Cryptococcus neoformans [27] = assay: Inhibition of Cryptococcus neoformans H99 delta5,6-desaturase assessed as upregulation of ERG5 gene expression at 2 ug/ml incubated for 24 hrs by RT-PCR analysis; conditions: dose 2.0 µg/ml
Candida albicans [28] = assay: microbe, parasite or virus in culture; type: functional, organism-based; conditions: Candida albicans, 0304103, 48 h
Description: Antifungal activity against Candida albicans 0304103 assessed as inhibition of fungal growth incubated for 48 hrs by microdilution method

[29] = microbe, parasite or virus in culture; type: functional; conditions: Cryptococcus; time 72 hrs
Description: Anti-cryptococcal activity against Cryptococcus assessed as inhibition of fungal growth incubated for 72 hrs by microdilution method

Cryptococcus neoformans [30] = assay: Inhibition of Cryptococcus neoformans H99 delta5,6-desaturase assessed as upregulation of ERG24 gene expression at 2 ug/ml incubated for 24 hrs by RT-PCR analysis; conditions: dose 2.0 µg/ml
Cryptococcus neoformans [31] = assay: Inhibition of Cryptococcus neoformans H99 delta5,6-desaturase assessed as blockade of ergosterol biosynthesis pretreated at 3 ug/ml followed by addition of ERG enzymes incubated for 24 hrs in presence of NADPH by GC-MS analysis; conditions: dose 3.0 µg/ml
Cryptococcus neoformans [32] = assay: Inhibition of Cryptococcus neoformans H99 delta5,6-desaturase assessed as increase in ergosta-7,22-dien-3-ol levels at 0.125 to 2 ug/ml incubated for 24 hrs by GC-MS analysis; conditions: dose 0.125-2 µg/ml, DDE = dose-dependent effect
Candida albicans [33] = assay: Antifungal activity against Candida albicans SC3514 assessed as decrease in ergosterol content at 2 ug/ml incubated for 24 hrs in presence of NADPH by GC-MS analysis; type: functional, organism-based; conditions: dose 2.0 µg/ml
Nakaseomyces glabratus [34] = assay: microbe, parasite or virus in culture; type: functional, organism-based; conditions: Nakaseomyces glabratus, 9073, 48 h
Description: Antifungal activity against Candida glabrata 9073 assessed as inhibition of fungal growth incubated for 48 hrs by microdilution method

[35] = Metabolic stability in mouse liver microsomes assessed as half life; type: ADME, Microsome
Cryptococcus neoformans [36] = assay: Inhibition of Cryptococcus neoformans H99 delta5,6-desaturase assessed as decrease in ergosterol level at 1 ug/ml incubated for 24 hrs by GC-MS analysis; conditions: dose 1.0 µg/ml
Cryptococcus neoformans [37] = assay: Inhibition of Cryptococcus neoformans H99 delta5,6-desaturase assessed as upregulation of ERG1 gene expression at 2 ug/ml incubated for 24 hrs by RT-PCR analysis; conditions: dose 2.0 µg/ml
Cryptococcus neoformans [38] = assay: Inhibition of biofilm formation in Cryptococcus neoformans H99 at 2 ug/ml incubated for 24 hrs by XTT reduction assay; type: functional
Candida tropicalis = assay: microbe, parasite or virus in culture; type: functional, organism-based; conditions: Candida tropicalis, 10186, 48 h
Description: Antifungal activity against Candida tropicalis 10186 assessed as inhibition of fungal growth incubated for 48 hrs by microdilution method

Cryptococcus neoformans [39] = assay: Inhibition of Cryptococcus neoformans H99 delta5,6-desaturase assessed as change in sterol content at 2 ug/ml incubated for 24 hrs by GC-MS analysis; conditions: dose 2.0 µg/ml
Cryptococcus neoformans [40] = assay: Inhibition of Cryptococcus neoformans H99 delta5,6-desaturase assessed as upregulation of ERG3 under stress condition at 0.25 to 1 ug/ml incubated for 24 hrs by RT-PCR analysis; conditions: dose 0.25-1 µg/ml, DDE = dose-dependent effect
[Candida] auris [41] = microbe, parasite or virus in culture; type: functional, organism-based; conditions: Candidozyma auris, 0029, 48 h
Description: Antifungal activity against Candida auris 0029 assessed as inhibition of fungal growth incubated for 48 hrs by microdilution method

Cryptococcus neoformans [42] = assay: Anti-cryptococcal activity against Cryptococcus neoformans H99 assessed as inhibition of fungal growth at 1 ug/ml measured after 72 hrs by time-growth curve assay; type: functional, organism-based; conditions: dose 1.0 µg/ml
Cryptococcus = assay: Fungicidal activity against Cryptococcus assessed as ratio of MFC to MIC; type: functional

Structure (SMILES): Cl.Clc1ccc(C2CCC(NC3CCCCC3)c3ccsc32)cc1Cl (centres undefined)
IC50 (Cryptococcus neoformans [1]): 8 µg/mL

Structure (SMILES): CC(C)(C)CNC1CCC(c2ccc(Cl)c(Cl)c2)c2sccc21.Cl (centres undefined)
IC50 (Cryptococcus neoformans [1]): 4 µg/mL

Structure (SMILES): Cl.Clc1ccc(C2CCC(NCc3ccncc3)c3ccsc32)cc1Cl (centres undefined)
IC50 (Cryptococcus neoformans [1]): 16 µg/mL

Structure (SMILES): CNC1CC(c2ccc(Cl)c(Cl)c2)c2ccccc21.Cl (centres undefined)
IC50 (Cryptococcus neoformans [1]): 16 µg/mL

Structure (SMILES): Cl.Clc1ccc(C2CCC(NCCC3CCOCC3)c3ccsc32)cc1Cl (centres undefined)
Activity (Cryptococcus neoformans [2]): Active | Activity (Cryptococcus neoformans [3]): 100% | IC50 (Pichia kudriavzevii): 8 µg/mL | IC50 ([Candida] auris [4]): 8 µg/mL | Activity (Candida albicans [5]): Active | IC50 (Candida albicans [6]): 32 µg/mL | IC50 (Aspergillus fumigatus [7]): 32 µg/mL | Activity (Cryptococcus neoformans [8]): Active | MFC (Cryptococcus neoformans [9]): 8 µg/mL | Activity (Cryptococcus neoformans [10]): Active | IC50 (Aspergillus fumigatus [11]): 32 µg/mL | MST [12]: 14 days | IC50 ([Candida] auris [13]): 8 µg/mL | Activity (Cryptococcus neoformans [14]): Active | IC50 (Cryptococcus neoformans [1]): 0.5 µg/mL | IC50 (Candida albicans [15]): 32 µg/mL | Activity (Cryptococcus neoformans [16]): Active | inhibition (Cryptococcus neoformans [17]): Dde | Activity (Cryptococcus neoformans [18]): Active | Activity (Cryptococcus neoformans [19]): Dde | Activity (Candida albicans [20]): Active | CLH [21]: 136 µL/min/mg | Activity (Candida albicans [22]): Active | IC50 (Nakaseomyces glabratus [23]): 8 µg/mL | Activity (Cryptococcus neoformans [24]): Active | Activity (Cryptococcus neoformans [25]): Dde | IC50 [26]: 20.2 µM | Activity (Cryptococcus neoformans [27]): Active | IC50 (Candida albicans [28]): 32 µg/mL | MIC50 [29]: 0.62 µg/mL | Activity (Cryptococcus neoformans [30]): Active | Activity (Cryptococcus neoformans [31]): Active | Activity (Cryptococcus neoformans [32]): Dde | Activity (Candida albicans [33]): Active | IC50 (Nakaseomyces glabratus [34]): 32 µg/mL | half-life [35]: 40.1 min | Activity (Cryptococcus neoformans [36]): Active | Activity (Cryptococcus neoformans [37]): Active | inhibition at 2 µg/mL (Cryptococcus neoformans [38]): 50% | IC50 (Candida tropicalis): 32 µg/mL | Activity (Cryptococcus neoformans [39]): Active | Activity (Cryptococcus neoformans [40]): Dde | IC50 ([Candida] auris [41]): 16 µg/mL | Activity (Cryptococcus neoformans [42]): Active | Ratio (Cryptococcus): 7.47

Structure (SMILES): Cl.Clc1ccc(C2CCC(NC3CC3)c3ccsc32)cc1Cl (centres undefined)
IC50 (Cryptococcus neoformans [1]): 16 µg/mL

Structure (SMILES): Cl.Clc1ccc(C2CCC(NCCC3CCCCC3)c3ccsc32)cc1 (centres undefined)
IC50 (Cryptococcus neoformans [1]): 64 µg/mL

Structure (SMILES): C[C@@H]1[C@H](O)[C@@H](C)/C=C/C=C/C=C/C=C/C=C/C=C/C=C/[C@H](O[C@@H]2O[C@H](C)[C@@H](O)[C@H](N)[C@@H]2O)C[C@@H]2O[C@](O)(C[C@@H](O)C[C@@H](O)[C@H](O)CC[C@@H](O)C[C@@H](O)CC(=O)O[C@H]1C)C[C@H](O)[C@H]2C(=O)O [AMPHOTERICIN B]
MFC (Cryptococcus neoformans [9]): 4 µg/mL (≈ 4.33 µM) | IC50 (Cryptococcus neoformans [1]): 0.25 µg/mL (≈ 0.271 µM) | MIC50 [29]: 0.13 µg/mL (≈ 0.141 µM)

More lines, now with the values ahead:

IC50 (Cryptococcus neoformans [1]): 2 µg/mL
Structure (SMILES): CN1CCC(CCNC2CCC(c3ccc(Cl)c(Cl)c3)c3sccc32)CC1.Cl (centres undefined)

IC50 (Cryptococcus neoformans [1]): 4 µg/mL
Structure (SMILES): Cl.Clc1ccc(C2CCC(NCCC3CCCCC3)c3ccsc32)c(Cl)c1 (centres undefined)

IC50 (Cryptococcus neoformans [1]): 2 µg/mL
Structure (SMILES): Cl.Clc1ccc(C2CCC(NCCCC3CCCCC3)c3ccsc32)cc1Cl (centres undefined)

IC50 (Cryptococcus neoformans [1]): 32 µg/mL
Structure (SMILES): Cc1ccc(C2CCC(NCCC3CCCCC3)c3ccsc32)cc1C.Cl (centres undefined)

IC50 (Cryptococcus neoformans [1]): 32 µg/mL
Structure (SMILES): Cl.Clc1ccc(C2CCC(NCc3ncccn3)c3ccsc32)cc1Cl (centres undefined)
